Assay [1] has as its system ob/ob mice. As to the kind of experiment: Intranasal (IN) efficacy, food intake in fasted ob/ob mice. It counts as in vivo. How it is done:
Subjects: ob/ob mice; approximately 10 weeks old males; body weight 50-60 grams.
The mice were divided into the following groups: • 1) Mice received only vehicle. The vehicle was one of the following: water, 10 mM phosphate buffer, 5% captisol in 10 mM phosphate buffer (see Table 1 for details). • 2) Mice received a compound of an embodiment of the present invention at a dosage of 1 mg/kg. • 3) Mice received a compound of an embodiment of the present invention at a dosage of 3 mg/kg. • 4) Mice received a compound of an embodiment of the present invention at a dosage of 6 mg/kg. n=6-8 animals per group
Note: For compound 1 and compound 2, the 1 mg/kg group was not included.
Animals were fasted overnight (˜16 hours), and an MC4-R agonist compound as described in Tables 1-3 was administered at 8:30 am next day. The administration volume was 20-25 μl/50 grams of body weight. […]
IN Efficacy Procedure: Mice were fasted overnight. […] Food weight was measured at 1, 2, 3, 4, 6, and 8 hours following the dosing. […]
(§1) IN Efficacy Procedure: Mice were fasted overnight. […] Food weight was measured at 1, 2, 3, 4, 6, and 8 hours following the dosing.
as §1
IN Efficacy Procedure: Mice were fasted overnight. […] Food weight was measured at 1, 2, 3, 4, and 6 hours following the dosing.

For assay [2], the system named is ob/ob mice. In words: Oral (PO) efficacy, food intake in fasted ob/ob mice. It counts as in vivo. The conditions noted are these: 30 mg/kg given orally, FIG. 1B. How it is done:
Subjects: ob/ob mice, ˜10 weeks old males. Body weight ˜50 grams.
PO Efficacy Groups: • 1) Vehicle=water • 2) Compound 1=200 μl of 2.5 mg/ml (10 mg/kg) • 3) Compound 1=200 μl of 7.5 mg/ml (30 mg/kg) n=8/group fasted
PO Efficacy Procedure: Mice were fasted overnight. At about 9:00 am the next morning, they were dosed with 200 μl of vehicle or compound solution by oral gavage. Mice were fed with pre-weighed food immediately after dosing, and had access to water the entire time. Food weight was measured at 1, 2, 3, 4, 6, and 24 hours following the dosing.

The conditions of assay [3]: humans, cited from earlier work; for body fat: intranasal administration.
The conditions of assay [4]: acute intranasal, humans; ACTH4-10 1 mg, desacetyl-αMSH equimolar 1.68 mg; cited from earlier work.
Where [5] appears, read: after intranasal administration.

With `COc1ccc(CCNC(=O)c2ccc(N/C(=N/[C@H]3C[C@H]4C[C@@H]([C@@H]3C)C4(C)C)N3CCN[C@@H](C)C3)cc2)c(F)c1` [Compound 1], the “reduction in cumulative food intake” value in the assay with ob/ob mice [1] (3 mg/kg administered intranasally, FIG. 1A) is on record as 59%. Moreover, the “increase in biological effect, intranasal versus oral, dose-normalised” value with ob/ob mice [1] (((59%/39%)÷(3/30)), 3 mg/kg intranasal vs 30 mg/kg oral) is on record as “approximately 15.1 times”. The “decrease in cumulative food intake” value in the assay on ob/ob mice [2] is listed as 39%.
In the case of “melanocyte stimulating hormone/adrenocorticotropin4-10 (MEHFRWG; Corticotropin; UniProt P01189 141-147, looked up, fragment) [MSH/ACTH4-10]”, in assay [3] (setting [5]), the insulin levels result is on record as “decreased” and the plasma leptin levels entry was “decreased”. Further, in assay [3], the body fat entry is listed as “reduced body fat”. Besides, the “processing negativity (PN) of the ERP over frontal and central cortical areas” value in assay [4] is reported as “reduced”.
In the case of desacetyl-αMSH, the body fat result in assay [3] is on record as “nonsignificant”. In addition, the “processing negativity (PN) of the ERP over frontal and central cortical areas” value in assay [4] is reported as “ineffective”.

(Values after patent US20070004743A1, “Intranasal administration of mc4-r agonists” (priority 2002, published 2007).)
